The Biogen ADME set (Fang et al. 2023)
≈ marks a conversion by molar mass, not a printed value.

Conditions: for aqueous solubility: pH 6.8

Work on `Cc1cc2c(s1)c1cnn(Cc3ccccc3F)c(=O)c1n2C` yielded an intrinsic clearance, human liver microsomes of 326 mL/min/kg and an intrinsic clearance, rat liver microsomes of 2650 mL/min/kg.
`Cn1c(NC(=O)c2ccn(COc3ccccc3)n2)nc2ccccc21` gave an aqueous solubility of 5.8 µg/mL (≈ 16.7 µM).
Molecule `Cc1noc(CCNc2cccc(F)c2C#N)n1` has an intrinsic clearance, human liver microsomes of 40.7 mL/min/kg and an intrinsic clearance, rat liver microsomes of 266 mL/min/kg.
In the case of `COc1cccc(OCCCn2cncc2-c2cc3c(cc2OC)OCCCO3)c1`, the MDR1-MDCK efflux ratio is reported as 5.28, the intrinsic clearance, human liver microsomes is reported as 16.7 mL/min/kg and the intrinsic clearance, rat liver microsomes is reported as 106 mL/min/kg. The aqueous solubility was 95.5 µg/mL (≈ 233 µM).
`O=C(Nc1nc2cc(C(F)(F)F)cc(NC3CC3)n2n1)c1cccnc1` showed an MDR1-MDCK efflux ratio of 2.35, an intrinsic clearance, human liver microsomes of at most 4.74 mL/min/kg and an intrinsic clearance, rat liver microsomes of 39.6 mL/min/kg. The aqueous solubility was 1.1 µg/mL (≈ 3.04 µM).
In the case of `CNC(=O)C1CCN(Cc2ncc(-c3ccc(F)cc3)o2)CC1`, the MDR1-MDCK efflux ratio is reported as 4.86, the intrinsic clearance, human liver microsomes is reported as at most 4.74 mL/min/kg and the intrinsic clearance, rat liver microsomes is reported as 11.2 mL/min/kg. It also gave an aqueous solubility of 19.8 µg/mL (≈ 62.4 µM).
`CCOc1cc(N2CCOC3(CCCC3)C2)ncn1` gave an MDR1-MDCK efflux ratio of 0.579, an intrinsic clearance, human liver microsomes of 37.4 mL/min/kg and an intrinsic clearance, rat liver microsomes of 631 mL/min/kg.
For `O=C(CCc1ccco1)Nc1ccccc1OC(F)F`, the MDR1-MDCK efflux ratio was 0.533, the intrinsic clearance, human liver microsomes was 116 mL/min/kg and the intrinsic clearance, rat liver microsomes was 831 mL/min/kg. For the same molecule, the aqueous solubility was 44.6 µg/mL (≈ 159 µM).
With `Cc1cc(-c2nnc3ccc4ccccc4n23)n(C)n1` the MDR1-MDCK efflux ratio was 1.26, the intrinsic clearance, human liver microsomes was at most 4.74 mL/min/kg and the intrinsic clearance, rat liver microsomes was 20.3 mL/min/kg. For the same molecule, the aqueous solubility was 17.1 µg/mL (≈ 64.9 µM).
With `CC1(C)[C@@H]2C[C@H]1[C@@]1(O)[C@@H](C2)Oc2c(ccc(O)c2C(=O)NCCNS(C)(=O)=O)[C@@H]1O` the MDR1-MDCK efflux ratio was 91, the intrinsic clearance, human liver microsomes was 29.3 mL/min/kg and the intrinsic clearance, rat liver microsomes was 134 mL/min/kg.
With `CC(C)(C)c1cc(NC(=O)c2cccc3cn[nH]c23)[nH]n1` the MDR1-MDCK efflux ratio was 1.55, the intrinsic clearance, human liver microsomes was 9.85 mL/min/kg and the intrinsic clearance, rat liver microsomes was 176 mL/min/kg. It also gave an aqueous solubility of 1.78 µg/mL (≈ 6.28 µM).
In the case of `COc1ccc(OC)c(N/C=C2\C(=O)Oc3ccccc3C2=O)c1`, the aqueous solubility is reported as 0.7 µg/mL (≈ 2.15 µM).
`Cc1c(C(=O)NCCCN(C)C)sc2ncnc(Nc3ccc(F)cc3OC(C)C)c12` showed an MDR1-MDCK efflux ratio of 59.2, a fraction unbound, human plasma of 0.0552 and a fraction unbound, rat plasma of 0.0926. It also gave an intrinsic clearance, human liver microsomes of at most 4.74 mL/min/kg, an intrinsic clearance, rat liver microsomes of 52.4 mL/min/kg and an aqueous solubility of 23.6 µg/mL (≈ 52.9 µM).
`Cc1cc(F)ccc1S(=O)(=O)N1CCCc2cnc(N3CCOCC3)nc21` showed an MDR1-MDCK efflux ratio of 0.723 and an aqueous solubility of 0.31 µg/mL (≈ 0.79 µM).
Work on `COc1ccc(-c2cnn3c(N)c(-c4ccccc4)cnc23)cc1OC` yielded an MDR1-MDCK efflux ratio of 0.459 and an aqueous solubility of 0.19 µg/mL (≈ 0.549 µM).
Work on `CC(=O)N1CCN([C@H]2CCN(C(=O)c3cc4cc(C)ccc4o3)CC[C@@H]2O)CC1` yielded an MDR1-MDCK efflux ratio of 38.8, an intrinsic clearance, human liver microsomes of 7.28 mL/min/kg and an intrinsic clearance, rat liver microsomes of 153 mL/min/kg.
With `c1ccc2nc(N3CCC(c4nc5ccccc5[nH]4)CC3)cnc2c1` the aqueous solubility was 2.4 µg/mL (≈ 7.29 µM).
In the case of `N#Cc1ccc(NS(=O)(=O)c2c[nH]c3nc(Cl)ccc23)c(F)c1`, the MDR1-MDCK efflux ratio is reported as 6.41, the intrinsic clearance, human liver microsomes is reported as at most 4.74 mL/min/kg and the aqueous solubility is reported as 13.1 µg/mL (≈ 37.3 µM).
With `Cc1nccn1CCCN1C(=O)SC(C)(C)C1=O` the MDR1-MDCK efflux ratio was 2.51, the intrinsic clearance, human liver microsomes was at most 4.74 mL/min/kg and the intrinsic clearance, rat liver microsomes was 83 mL/min/kg. The aqueous solubility was 29.2 µg/mL (≈ 109 µM).
For `c1ccc(-c2nccc(NCc3nnc4n3CCCCC4)n2)cc1`, the intrinsic clearance, human liver microsomes was 78.9 mL/min/kg and the intrinsic clearance, rat liver microsomes was 448 mL/min/kg.
With `O=C(O)CCn1c2ccccc2c2ccccc21` the MDR1-MDCK efflux ratio was 0.809, the intrinsic clearance, human liver microsomes was at most 4.74 mL/min/kg and the intrinsic clearance, rat liver microsomes was 11.4 mL/min/kg. It also gave an aqueous solubility of 52 µg/mL (≈ 217 µM).
With `Cc1nc2cc(NC(=O)CCc3c(C)nc4c(c(C)nn4C)c3C)ccc2o1` the MDR1-MDCK efflux ratio was 13.5, the intrinsic clearance, human liver microsomes was 24.2 mL/min/kg and the intrinsic clearance, rat liver microsomes was 1110 mL/min/kg. It also gave an aqueous solubility of 9.3 µg/mL (≈ 24.6 µM).
`C[C@@H](CN1CCC(n2c(=O)[nH]c3cc(Cl)ccc32)CC1)NC(=O)c1ccc2ccccc2c1` showed an intrinsic clearance, human liver microsomes of 104 mL/min/kg, an intrinsic clearance, rat liver microsomes of 668 mL/min/kg and an aqueous solubility of 3.85 µg/mL (≈ 8.32 µM).
With `O=C(Nc1ccc(N2CCCC2)cn1)c1ccc(-c2cnco2)cc1` the MDR1-MDCK efflux ratio was 0.338, the intrinsic clearance, human liver microsomes was 27.2 mL/min/kg and the intrinsic clearance, rat liver microsomes was 190 mL/min/kg.
`CN(C)C(C)(C)CNc1ncnc2ccccc12` showed an MDR1-MDCK efflux ratio of 2.86, an intrinsic clearance, human liver microsomes of at most 4.74 mL/min/kg and an intrinsic clearance, rat liver microsomes of 293 mL/min/kg. For the same molecule, the aqueous solubility was 39.1 µg/mL (≈ 160 µM).
For `Cc1nnc(COc2cccc(-n3ccnc3)c2)n1C1CC1`, the MDR1-MDCK efflux ratio was 23.1, the intrinsic clearance, human liver microsomes was at most 4.74 mL/min/kg and the intrinsic clearance, rat liver microsomes was 16.6 mL/min/kg.
In the case of `NC(CO)(CO)CCc1ccc(Sc2cccc(OCc3ccccc3)c2)cc1Cl`, the intrinsic clearance, human liver microsomes is reported as 6.33 mL/min/kg and the intrinsic clearance, rat liver microsomes is reported as 14.2 mL/min/kg.
With `NC(=O)C1(Cc2ccc(-c3ccncc3)cc2)CCN(C(=O)Cc2cccc(F)c2)CC1` the fraction unbound, human plasma was 0.102, the fraction unbound, rat plasma was 0.114 and the aqueous solubility was 63 µg/mL (≈ 146 µM).
Work on `COc1nc2sc(C(=O)NC3CC3)c(N)c2c(C)c1Cl` yielded a fraction unbound, human plasma of 0.0176, a fraction unbound, rat plasma of 0.0283 and an intrinsic clearance, human liver microsomes of 9.77 mL/min/kg. For the same molecule, the intrinsic clearance, rat liver microsomes was 133 mL/min/kg.
`COc1ccccc1-c1ccc(CC2(C(=O)NC3CC3)CCOCC2)cc1` showed an MDR1-MDCK efflux ratio of 1.89, an intrinsic clearance, human liver microsomes of 81.4 mL/min/kg and an intrinsic clearance, rat liver microsomes of 2150 mL/min/kg. It also gave an aqueous solubility of 41.8 µg/mL (≈ 114 µM).
Work on `COc1ccc(Nc2c(C#N)cnc3cc(OC)c(OC)cc23)cc1Cl` yielded an MDR1-MDCK efflux ratio of 3.24, a fraction unbound, human plasma of 0.00925 and a fraction unbound, rat plasma of 0.0131. It also gave an intrinsic clearance, human liver microsomes of 53.1 mL/min/kg and an intrinsic clearance, rat liver microsomes of 574 mL/min/kg.
Molecule `CCOc1cc(N(C)CC2CCN(C)CC2)ncn1` has an MDR1-MDCK efflux ratio of 1.55, an intrinsic clearance, human liver microsomes of 20.1 mL/min/kg and an intrinsic clearance, rat liver microsomes of 561 mL/min/kg.
`CC[C@@H]1[C@H](F)C(=O)N[C@@H]1COc1nccc2cc(C(N)=O)c(OC)cc12` showed an MDR1-MDCK efflux ratio of 61.7, an intrinsic clearance, human liver microsomes of 35 mL/min/kg and an intrinsic clearance, rat liver microsomes of 218 mL/min/kg. For the same molecule, the aqueous solubility was 53.6 µg/mL (≈ 148 µM).
For `O=C(NC1CCCC1)C(=O)c1ccc2c(c1)CCC2`, the MDR1-MDCK efflux ratio was 0.548, the intrinsic clearance, human liver microsomes was 163 mL/min/kg and the intrinsic clearance, rat liver microsomes was 908 mL/min/kg. For the same molecule, the aqueous solubility was 31.3 µg/mL (≈ 122 µM).
Work on `CCCS(=O)(=O)Nc1ccc(F)c(C(=O)c2c[nH]c3ncc(-c4ccc(Cl)cc4)cc23)c1F` yielded an MDR1-MDCK efflux ratio of 5.52, a fraction unbound, human plasma of 0.00025 and an aqueous solubility of 0.35 µg/mL (≈ 0.714 µM).
With `C1CCC(OCc2noc(C3CC3)n2)CC1` the MDR1-MDCK efflux ratio was 0.884, the intrinsic clearance, human liver microsomes was 34 mL/min/kg and the intrinsic clearance, rat liver microsomes was 372 mL/min/kg. For the same molecule, the aqueous solubility was 16.2 µg/mL (≈ 72.9 µM).
`CC(Oc1ccc(Cl)cc1)C(=O)N1CCC(n2c(=O)[nH]c3ccccc32)CC1` (stereo not drawn) showed an intrinsic clearance, human liver microsomes of 36.2 mL/min/kg, an intrinsic clearance, rat liver microsomes of 525 mL/min/kg and an aqueous solubility of 28.9 µg/mL (≈ 72.4 µM).
`COc1ccc2nc(C)nc(N3CC(O)(c4ccc(F)cc4)C3)c2c1` showed an MDR1-MDCK efflux ratio of 3.87, an intrinsic clearance, human liver microsomes of 26.9 mL/min/kg and an intrinsic clearance, rat liver microsomes of 468 mL/min/kg. For the same molecule, the aqueous solubility was 19.4 µg/mL (≈ 57.3 µM).
`COc1ccc(C)cc1-n1ccc(C(=O)NC(C)C)n1` showed an MDR1-MDCK efflux ratio of 0.545, an intrinsic clearance, human liver microsomes of 62.5 mL/min/kg and an intrinsic clearance, rat liver microsomes of 334 mL/min/kg. For the same molecule, the aqueous solubility was 35.7 µg/mL (≈ 131 µM).
Molecule `O=C(c1ccc(Cl)cc1)N1CCC(c2nnc3n2CCCC3)CC1` has an MDR1-MDCK efflux ratio of 128, an intrinsic clearance, human liver microsomes of at most 4.74 mL/min/kg and an intrinsic clearance, rat liver microsomes of at most 10.7 mL/min/kg.
For `Cn1c(-c2n[nH]c3c2CCCC3)nnc1N1CCC2(CNC(=O)C2)C1` (stereo not drawn), the MDR1-MDCK efflux ratio was 5.01, the fraction unbound, human plasma was 0.621 and the intrinsic clearance, human liver microsomes was at most 4.74 mL/min/kg.
